What was measured:
Test in all cases: radiometric filter-binding kinase assay
[1] = test system: AKT1 (human), P31749 [S473D]
BRSK2 (human) = BRSK2 (human) (UniProt Q8IWQ3)
CLK2 (human) = CLK2 (human) (UniProt P49760)
CSNK2A1 (human) = CSNK2A1 (human) (UniProt P68400)
DAPK1 (human) = DAPK1 (human) (UniProt P53355)
DYRK1A (human) = DYRK1A (human) (UniProt Q13627)
DYRK3 (human) = DYRK3 (human) (UniProt O43781)
EPHB3 (human) = EPHB3 (human) (UniProt P54753)
IKBKB (human) = IKBKB (human) (UniProt O14920)
IKBKE (human) = IKBKE (human) (UniProt Q14164)
IRAK4 (human) = IRAK4 (human) (UniProt Q9NWZ3)
MAP2K6 (human) = MAP2K6 (human) (UniProt P52564)
MAP3K11 (human) = MAP3K11 (human) (UniProt Q16584)
MAP3K7 TAB1 (human) = MAP3K7 TAB1 (human) (UniProt Q15750+O43318)
MAPK11 (human) = MAPK11 (human) (UniProt Q15759)
MAPK12 (human) = MAPK12 (human) (UniProt P53778)
MAPK14 (human) = MAPK14 (human) (UniProt Q16539)
MAPK3 (human) = MAPK3 (human) (UniProt P27361)
MAPK8 (human) = MAPK8 (human) (UniProt P45983)
MAPKAPK3 (human) = MAPKAPK3 (human) (UniProt Q16644)
MAPKAPK5 (human) = MAPKAPK5 (human) (UniProt Q8IW41)
MKNK2 (human) = MKNK2 (human) (UniProt Q9HBH9)
NTRK1 (human) = NTRK1 (human) (UniProt P04629)
PAK4 (human) = PAK4 (human) (UniProt O96013)
PIM1 (human) = PIM1 (human) (UniProt P11309)
PIM2 (human) = PIM2 (human) (UniProt Q9P1W9)
PIM3 (human) = PIM3 (human) (UniProt Q86V86)
PLK1 (human) = PLK1 (human) (UniProt P53350)
ROCK2 (rat) = details: accession and sequence are those of the human protein
RPS6KA1 KD1 KD2 (human) = RPS6KA1 KD1 KD2 (human) (UniProt Q15418)
RPS6KA3 KD1 KD2 (human) = RPS6KA3 KD1 KD2 (human) (UniProt P51812)
[2] = test system: RPS6KB1 (human), P23443 [T412E]
[3] = test system: SGK1 (human), O00141 [S422D]
STK3 (human) = STK3 (human) (UniProt Q13188)
TBK1 (human) = TBK1 (human) (UniProt Q9UHD2)

Sequence of MKNK2 (human) (Q9HBH9 whole entry, looked up): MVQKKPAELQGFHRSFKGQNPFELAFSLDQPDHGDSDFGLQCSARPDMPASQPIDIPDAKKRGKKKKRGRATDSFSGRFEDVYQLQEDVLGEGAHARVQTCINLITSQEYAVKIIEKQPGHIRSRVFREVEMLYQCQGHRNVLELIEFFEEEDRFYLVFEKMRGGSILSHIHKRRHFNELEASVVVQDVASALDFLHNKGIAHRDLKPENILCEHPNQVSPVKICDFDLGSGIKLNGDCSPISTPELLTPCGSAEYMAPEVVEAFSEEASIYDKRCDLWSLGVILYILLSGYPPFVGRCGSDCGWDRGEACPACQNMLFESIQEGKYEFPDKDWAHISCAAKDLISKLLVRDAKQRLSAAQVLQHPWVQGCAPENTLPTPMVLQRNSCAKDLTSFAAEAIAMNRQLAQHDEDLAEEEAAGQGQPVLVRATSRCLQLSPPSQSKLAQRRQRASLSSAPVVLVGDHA
Sequence of BRSK2 (human) (Q8IWQ3 whole entry, looked up): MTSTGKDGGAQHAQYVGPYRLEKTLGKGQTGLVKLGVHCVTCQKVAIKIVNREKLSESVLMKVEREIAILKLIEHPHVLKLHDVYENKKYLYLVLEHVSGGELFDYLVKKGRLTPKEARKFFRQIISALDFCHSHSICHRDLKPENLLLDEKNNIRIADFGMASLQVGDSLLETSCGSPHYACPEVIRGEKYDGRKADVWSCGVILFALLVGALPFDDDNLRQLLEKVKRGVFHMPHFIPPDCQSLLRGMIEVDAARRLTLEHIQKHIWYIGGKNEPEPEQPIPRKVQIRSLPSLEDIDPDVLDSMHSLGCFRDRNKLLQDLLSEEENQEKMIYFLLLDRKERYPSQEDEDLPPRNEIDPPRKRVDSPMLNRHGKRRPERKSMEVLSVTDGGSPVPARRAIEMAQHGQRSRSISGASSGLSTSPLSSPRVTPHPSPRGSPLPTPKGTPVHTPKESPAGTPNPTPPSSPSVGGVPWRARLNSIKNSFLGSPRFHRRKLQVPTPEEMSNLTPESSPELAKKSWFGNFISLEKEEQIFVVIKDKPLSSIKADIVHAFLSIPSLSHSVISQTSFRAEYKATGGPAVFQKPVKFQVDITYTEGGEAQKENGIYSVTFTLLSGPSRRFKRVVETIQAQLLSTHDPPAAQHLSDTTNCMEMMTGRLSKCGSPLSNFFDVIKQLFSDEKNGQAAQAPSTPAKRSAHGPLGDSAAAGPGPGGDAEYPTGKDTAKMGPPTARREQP
Sequence of CSNK2A1 (human) (P68400 whole entry, looked up): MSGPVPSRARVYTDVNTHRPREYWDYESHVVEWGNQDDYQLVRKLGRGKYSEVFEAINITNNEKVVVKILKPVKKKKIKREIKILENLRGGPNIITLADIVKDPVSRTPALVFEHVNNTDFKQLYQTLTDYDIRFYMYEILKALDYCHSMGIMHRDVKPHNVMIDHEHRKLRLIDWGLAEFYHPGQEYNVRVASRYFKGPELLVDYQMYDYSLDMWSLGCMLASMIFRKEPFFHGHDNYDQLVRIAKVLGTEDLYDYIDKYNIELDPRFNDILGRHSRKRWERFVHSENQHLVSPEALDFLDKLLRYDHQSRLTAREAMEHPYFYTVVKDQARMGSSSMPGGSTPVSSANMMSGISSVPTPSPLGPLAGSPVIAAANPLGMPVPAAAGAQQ
Sequence of PLK1 (human) (P53350 whole entry, looked up): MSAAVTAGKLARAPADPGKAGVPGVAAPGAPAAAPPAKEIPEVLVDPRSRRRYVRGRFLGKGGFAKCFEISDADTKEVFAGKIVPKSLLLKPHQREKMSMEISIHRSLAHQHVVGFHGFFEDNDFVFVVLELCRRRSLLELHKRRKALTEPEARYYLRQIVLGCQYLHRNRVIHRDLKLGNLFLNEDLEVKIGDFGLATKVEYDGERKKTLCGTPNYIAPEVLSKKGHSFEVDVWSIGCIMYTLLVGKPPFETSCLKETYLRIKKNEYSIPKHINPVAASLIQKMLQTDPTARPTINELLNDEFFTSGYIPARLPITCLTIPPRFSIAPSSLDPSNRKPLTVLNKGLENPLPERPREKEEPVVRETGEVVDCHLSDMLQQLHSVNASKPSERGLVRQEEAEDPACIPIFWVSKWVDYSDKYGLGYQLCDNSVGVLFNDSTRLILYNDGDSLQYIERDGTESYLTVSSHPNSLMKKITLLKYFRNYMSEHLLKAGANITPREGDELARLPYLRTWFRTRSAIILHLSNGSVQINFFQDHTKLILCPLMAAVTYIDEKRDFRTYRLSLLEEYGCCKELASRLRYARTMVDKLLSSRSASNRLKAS
Sequence of MAPK14 (human) (Q16539 whole entry, looked up): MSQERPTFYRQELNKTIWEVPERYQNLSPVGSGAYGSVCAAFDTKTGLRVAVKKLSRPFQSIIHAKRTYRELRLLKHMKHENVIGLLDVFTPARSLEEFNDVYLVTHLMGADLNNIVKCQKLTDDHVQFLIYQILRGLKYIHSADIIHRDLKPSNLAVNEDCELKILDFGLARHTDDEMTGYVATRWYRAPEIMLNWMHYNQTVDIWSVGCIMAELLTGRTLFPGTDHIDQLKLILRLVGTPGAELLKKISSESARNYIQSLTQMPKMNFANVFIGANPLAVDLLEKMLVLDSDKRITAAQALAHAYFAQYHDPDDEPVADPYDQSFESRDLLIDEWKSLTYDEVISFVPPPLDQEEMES
Sequence of MAPK8 (human) (P45983 whole entry, looked up): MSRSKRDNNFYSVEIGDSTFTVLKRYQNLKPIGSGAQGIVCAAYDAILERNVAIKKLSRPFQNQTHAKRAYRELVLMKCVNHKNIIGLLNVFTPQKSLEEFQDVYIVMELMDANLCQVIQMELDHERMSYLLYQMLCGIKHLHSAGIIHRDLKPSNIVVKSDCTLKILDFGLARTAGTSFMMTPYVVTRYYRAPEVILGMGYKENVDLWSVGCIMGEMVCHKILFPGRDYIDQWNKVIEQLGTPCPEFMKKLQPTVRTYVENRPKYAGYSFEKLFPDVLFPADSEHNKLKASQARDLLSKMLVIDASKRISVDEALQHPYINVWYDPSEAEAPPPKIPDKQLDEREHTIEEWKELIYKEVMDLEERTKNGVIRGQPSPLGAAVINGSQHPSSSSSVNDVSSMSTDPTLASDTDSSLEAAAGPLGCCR
Sequence of IKBKB (human) (O14920 whole entry, looked up): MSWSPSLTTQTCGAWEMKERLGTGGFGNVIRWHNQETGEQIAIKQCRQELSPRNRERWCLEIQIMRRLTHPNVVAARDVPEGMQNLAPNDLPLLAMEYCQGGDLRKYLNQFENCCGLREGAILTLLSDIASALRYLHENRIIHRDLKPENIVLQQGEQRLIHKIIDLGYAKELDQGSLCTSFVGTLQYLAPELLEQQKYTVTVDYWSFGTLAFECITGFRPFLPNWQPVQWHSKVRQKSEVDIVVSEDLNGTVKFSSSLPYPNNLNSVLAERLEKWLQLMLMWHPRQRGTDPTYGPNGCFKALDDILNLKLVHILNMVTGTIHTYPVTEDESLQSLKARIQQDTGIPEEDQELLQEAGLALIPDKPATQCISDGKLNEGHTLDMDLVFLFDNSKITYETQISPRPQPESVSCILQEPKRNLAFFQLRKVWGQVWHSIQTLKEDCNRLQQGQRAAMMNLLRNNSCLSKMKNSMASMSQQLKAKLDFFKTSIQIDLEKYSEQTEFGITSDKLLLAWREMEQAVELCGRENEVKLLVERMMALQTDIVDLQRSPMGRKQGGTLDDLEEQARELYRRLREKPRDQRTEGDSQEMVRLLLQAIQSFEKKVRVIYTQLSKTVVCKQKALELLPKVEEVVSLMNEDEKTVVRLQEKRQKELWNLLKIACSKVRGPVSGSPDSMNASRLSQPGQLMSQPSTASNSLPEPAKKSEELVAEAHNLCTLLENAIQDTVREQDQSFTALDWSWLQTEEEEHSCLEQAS
Sequence of STK3 (human) (Q13188 whole entry, looked up): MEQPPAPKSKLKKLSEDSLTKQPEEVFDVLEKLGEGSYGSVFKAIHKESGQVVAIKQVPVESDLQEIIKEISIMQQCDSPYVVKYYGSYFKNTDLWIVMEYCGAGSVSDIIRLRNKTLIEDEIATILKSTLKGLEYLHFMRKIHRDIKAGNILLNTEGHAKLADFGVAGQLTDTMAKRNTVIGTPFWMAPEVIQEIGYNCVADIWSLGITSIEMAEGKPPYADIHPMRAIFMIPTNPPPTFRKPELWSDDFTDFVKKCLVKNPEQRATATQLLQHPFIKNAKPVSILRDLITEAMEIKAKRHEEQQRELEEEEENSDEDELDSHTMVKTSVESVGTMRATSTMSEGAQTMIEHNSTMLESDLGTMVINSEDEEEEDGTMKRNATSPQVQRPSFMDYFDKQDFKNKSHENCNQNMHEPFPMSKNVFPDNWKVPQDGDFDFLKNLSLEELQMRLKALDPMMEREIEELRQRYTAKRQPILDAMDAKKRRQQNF
Sequence of RPS6KB1 (human), P23443 [T412E] (P23443 whole entry T412E, looked up): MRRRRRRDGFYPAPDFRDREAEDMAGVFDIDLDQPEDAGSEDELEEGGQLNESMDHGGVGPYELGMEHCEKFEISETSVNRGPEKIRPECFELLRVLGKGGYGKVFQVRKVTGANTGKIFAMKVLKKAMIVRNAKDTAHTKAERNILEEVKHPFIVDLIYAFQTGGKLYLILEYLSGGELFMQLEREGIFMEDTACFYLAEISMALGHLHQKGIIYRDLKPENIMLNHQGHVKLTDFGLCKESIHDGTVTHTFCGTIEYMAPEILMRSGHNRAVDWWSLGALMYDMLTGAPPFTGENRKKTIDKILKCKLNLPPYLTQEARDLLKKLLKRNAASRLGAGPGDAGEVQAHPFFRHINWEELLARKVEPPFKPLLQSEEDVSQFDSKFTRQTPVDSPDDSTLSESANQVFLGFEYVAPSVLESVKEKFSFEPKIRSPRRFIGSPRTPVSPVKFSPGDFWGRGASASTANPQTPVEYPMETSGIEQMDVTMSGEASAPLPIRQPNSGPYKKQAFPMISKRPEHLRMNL

## Oc1ccc2ccccc2c1SSc1c(O)ccc2ccccc12
[1]; compound 1.0 µM
  residual activity: 87%
[1]; compound 5.0 µM
  residual activity: 62%
[1]; compound 10.0 µM
  residual activity: 85%
BRSK2 (human); compound 1.0 µM
  residual activity: 39%
BRSK2 (human); compound 5.0 µM
  residual activity: 14%
BRSK2 (human); compound 10.0 µM
  residual activity: 48%
CLK2 (human); compound 1.0 µM
  residual activity: 77%
CLK2 (human); compound 5.0 µM
  residual activity: 48%
CSNK2A1 (human); compound 1.0 µM
  residual activity: 104%
CSNK2A1 (human); compound 5.0 µM
  residual activity: 97%
CSNK2A1 (human); compound 10.0 µM
  residual activity: 127%
DAPK1 (human); compound 1.0 µM
  residual activity: 101%
DAPK1 (human); compound 5.0 µM
  residual activity: 83%
DYRK1A (human); compound 1.0 µM
  residual activity: 47%
DYRK1A (human); compound 5.0 µM
  residual activity: 19%
DYRK1A (human); compound 10.0 µM
  residual activity: 83%
DYRK3 (human); compound 1.0 µM
  residual activity: 54%
DYRK3 (human); compound 5.0 µM
  residual activity: 33%
DYRK3 (human); compound 10.0 µM
  residual activity: 74%
EPHB3 (human); compound 1.0 µM
  residual activity: 86%
EPHB3 (human); compound 5.0 µM
  residual activity: 69%
EPHB3 (human); compound 10.0 µM
  residual activity: 26%
IKBKB (human); compound 1.0 µM
  residual activity: 33%
IKBKB (human); compound 5.0 µM
  residual activity: 6%
IKBKB (human); compound 10.0 µM
  residual activity: 68%
IKBKE (human); compound 1.0 µM
  residual activity: 7%
IKBKE (human); compound 5.0 µM
  residual activity: 4%
IKBKE (human); compound 10.0 µM
  residual activity: 70%
IRAK4 (human); compound 1.0 µM
  residual activity: 47%
IRAK4 (human); compound 5.0 µM
  residual activity: 9%
MAP2K6 (human); compound 1.0 µM
  residual activity: 93%
MAP2K6 (human); compound 5.0 µM
  residual activity: 70%
MAP3K11 (human); compound 1.0 µM
  residual activity: 9%
MAP3K11 (human); compound 5.0 µM
  residual activity: 2%
MAP3K7 TAB1 (human); compound 1.0 µM
  residual activity: 47%
MAP3K7 TAB1 (human); compound 5.0 µM
  residual activity: 15%
MAPK11 (human); compound 1.0 µM
  residual activity: 114%
MAPK11 (human); compound 5.0 µM
  residual activity: 112%
MAPK11 (human); compound 10.0 µM
  residual activity: 117%
MAPK12 (human); compound 1.0 µM
  residual activity: 97%
MAPK12 (human); compound 5.0 µM
  residual activity: 99%
MAPK12 (human); compound 10.0 µM
  residual activity: 103%
MAPK14 (human); compound 1.0 µM
  residual activity: 80%
MAPK14 (human); compound 5.0 µM
  residual activity: 68%
MAPK14 (human); compound 10.0 µM
  residual activity: 83%
MAPK3 (human); compound 1.0 µM
  residual activity: 9%
MAPK3 (human); compound 5.0 µM
  residual activity: 6%
MAPK3 (human); compound 10.0 µM
  residual activity: 8%
MAPK8 (human); compound 1.0 µM
  residual activity: 99%
MAPK8 (human); compound 5.0 µM
  residual activity: 76%
MAPK8 (human); compound 10.0 µM
  residual activity: 89%
MAPKAPK3 (human); compound 1.0 µM
  residual activity: 26%
MAPKAPK3 (human); compound 5.0 µM
  residual activity: 10%
MAPKAPK5 (human); compound 1.0 µM
  residual activity: 86%
MAPKAPK5 (human); compound 5.0 µM
  residual activity: 46%
MAPKAPK5 (human); compound 10.0 µM
  residual activity: 102%
MKNK2 (human); compound 1.0 µM
  residual activity: 97%
MKNK2 (human); compound 5.0 µM
  residual activity: 78%
MKNK2 (human); compound 10.0 µM
  residual activity: 87%
NTRK1 (human); compound 1.0 µM
  residual activity: 63%
NTRK1 (human); compound 5.0 µM
  residual activity: 19%
PAK4 (human); compound 1.0 µM
  residual activity: 119%
PAK4 (human); compound 5.0 µM
  residual activity: 45%
PAK4 (human); compound 10.0 µM
  residual activity: 98%
PIM1 (human); compound 1.0 µM
  residual activity: 37%
PIM1 (human); compound 5.0 µM
  residual activity: 15%
PIM1 (human); compound 10.0 µM
  residual activity: 46%
PIM2 (human); compound 1.0 µM
  residual activity: 65%
PIM2 (human); compound 5.0 µM
  residual activity: 21%
PIM2 (human); compound 10.0 µM
  residual activity: 81%
PIM3 (human); compound 1.0 µM
  residual activity: 76%
PIM3 (human); compound 5.0 µM
  residual activity: 17%
PIM3 (human); compound 10.0 µM
  residual activity: 58%
PLK1 (human); compound 1.0 µM
  residual activity: 90%
PLK1 (human); compound 5.0 µM
  residual activity: 12%
PLK1 (human); compound 10.0 µM
  residual activity: 9%
ROCK2 (rat); compound 1.0 µM
  residual activity: 95%
ROCK2 (rat); compound 5.0 µM
  residual activity: 87%
ROCK2 (rat); compound 10.0 µM
  residual activity: 78%
RPS6KA1 KD1 KD2 (human); compound 1.0 µM
  residual activity: 78%
RPS6KA1 KD1 KD2 (human); compound 5.0 µM
  residual activity: 62%
RPS6KA3 KD1 KD2 (human); compound 1.0 µM
  residual activity: 12%
RPS6KA3 KD1 KD2 (human); compound 5.0 µM
  residual activity: 6%
RPS6KA3 KD1 KD2 (human); compound 10.0 µM
  residual activity: 6%
[2]; compound 1.0 µM
  residual activity: 56%
[2]; compound 5.0 µM
  residual activity: 14%
[2]; compound 10.0 µM
  residual activity: 3%
[3]; compound 1.0 µM
  residual activity: 89%
[3]; compound 5.0 µM
  residual activity: 48%
[3]; compound 10.0 µM
  residual activity: 107%
STK3 (human); compound 1.0 µM
  residual activity: 5%
STK3 (human); compound 5.0 µM
  residual activity: 6%
STK3 (human); compound 10.0 µM
  residual activity: 51%
TBK1 (human); compound 1.0 µM
  residual activity: 59%
TBK1 (human); compound 5.0 µM
  residual activity: 22%
TBK1 (human); compound 10.0 µM
  residual activity: 77%
